From article PMC6934184, “Selective DNA-PKcs inhibition extends the therapeutic index of localized radiotherapy and chemotherapy” (The Journal of Clinical Investigation, 2019)

Target: T1, PRKX (Homo sapiens, UniProt P51817)
T1 construct: purchased Thermo Fisher Scientific (Life Technologies) SelectScreen
Test: SelectScreen Z'LYTE
Type: biochemical
Method in brief: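 SelectScreen broad panel; activity (Z'LYTE, Adapta) plus binding formats. ATP: Km app for CSF1R Z'LYTE; 10 for CAMK1 Adapta. Readout = % per kinase.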

T1 sequence (P51817 whole entry): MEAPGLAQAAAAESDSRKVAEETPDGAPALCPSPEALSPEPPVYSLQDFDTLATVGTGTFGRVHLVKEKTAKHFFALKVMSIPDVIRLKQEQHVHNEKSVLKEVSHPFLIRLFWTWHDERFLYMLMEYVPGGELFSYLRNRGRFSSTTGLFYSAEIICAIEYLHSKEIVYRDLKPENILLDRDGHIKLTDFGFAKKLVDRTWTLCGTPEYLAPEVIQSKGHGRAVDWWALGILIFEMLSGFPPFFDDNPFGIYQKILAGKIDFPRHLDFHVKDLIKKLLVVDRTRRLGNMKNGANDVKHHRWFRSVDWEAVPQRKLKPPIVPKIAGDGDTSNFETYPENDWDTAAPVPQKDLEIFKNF

SMILES: CN(C(=O)CN1CCOCC1)c1ccc2sc3c(-c4cccc5c(=O)cc(N6CC7CCC(C6)O7)oc45)cccc3c2c1 [NU5455]
- inhibition at 1 µM: 12.5%
